Experimental data as given in US9321750B2, “ROR modulators and their uses” (INNOV17 LLC, priority 2012, dated 2016).
Blank lines part the entries; values can stand above or below the molecule they belong to.

Assays:
[1] = tested on: IL-22; test: Real-time qRT-PCR in TH17 cells: IL-22 gene expression; assay type: cell-based, human; set-up: key: A: No change in gene expression observed relative to DMSO treated Th17 cells; B: Decreased gene expression observed relative to DMSO treated Th17 cells; C: Increased gene expression observed relative to DMSO treated Th17 cells
Experimental: (§1) Peripheral blood mononuclear cells (PBMCs) were sourced from freshly prepared leukocyte enriched plasma (buffy coat) from healthy volunteers from which PBMCs were isolated by density gradient centrifugation using Ficoll-Paque™ PLUS (GE Healthcare). Naïve CD4+ T cells were isolated using the Naïve CD4+ T cell Isolation Kit II (Miltenyi Biotec) as per manufacturer's instructions. CD4+ T cells were plated at 5×10^4 cells/well in 96 well plates pre-coated with immobilized human (h)-αCD3 antibody (eBioscience) then differentiated to TH17 cells using h-αCD28, h-αIFNγ, h-αIL4, h-IL6, h-IL23, h-IL1β, h-TGFβ1 (eBioscience) and maintained in a cell culture incubator at 37° C. with 5% CO2 in TexMACS Medium (Miltenyi Biotec) supplemented with 1% Penicillin/Streptomycin (Lonza) over 5 days.
(§2) RNA was isolated from TH17 cells and cDNA was synthesized using the Verso cDNA kit (Thermo Scientific) as per manufacturer's instructions. IL-17A, IL-17F, IL-21, IL-22, G-CSF, IL-23R and FOXP3 gene expression were determined for compound treated and untreated TH17 cell samples using Solaris qPCR Gene expression assays (Thermo Scientific) with an iCycler iQ Real-Time PCR Detection System (Bio-Rad). Individual gene expression was normalized to a panel of six reference genes (ACTB, TBP, HPRT1, PGK1, TFRC and PPIA) (Thermo Scientific) and analyzed by REST 2009 (Qiagen) in accordance to MIQE guidelines (Bustin et al. (2009) Clin. Chem, 55:611-622). The effects of compounds on TH17 cytokine mRNA levels are presented as fold change in gene expression of compound treated TH17 cells relative to DMSO treated cells in the table below.

[2] = tested on: IL-17F; test: Real-time qRT-PCR in TH17 cells: IL-17F gene expression; assay type: cell-based, human; set-up: key: A: No change in gene expression observed relative to DMSO treated Th17 cells; B: Decreased gene expression observed relative to DMSO treated Th17 cells; C: Increased gene expression observed relative to DMSO treated Th17 cells
Experimental: as §1, §2

[3] = tested on: IL-21; test: Real-time qRT-PCR in TH17 cells: IL-21 gene expression; assay type: cell-based, human; set-up: key: A: No change in gene expression observed relative to DMSO treated Th17 cells; B: Decreased gene expression observed relative to DMSO treated Th17 cells; C: Increased gene expression observed relative to DMSO treated Th17 cells
Experimental: as §1, §2

[4] = tested on: IL-17A; test: Real-time qRT-PCR in TH17 cells: IL-17A gene expression; assay type: cell-based, human; set-up: key: A: No change in gene expression observed relative to DMSO treated Th17 cells; B: Decreased gene expression observed relative to DMSO treated Th17 cells; C: Increased gene expression observed relative to DMSO treated Th17 cells
Experimental: as §1, §2

[5] = tested on: FOXP3; test: Real-time qRT-PCR in TH17 cells: FOXP3 gene expression; assay type: cell-based, human; set-up: key: A: No change in gene expression observed relative to DMSO treated Th17 cells; B: Decreased gene expression observed relative to DMSO treated Th17 cells; C: Increased gene expression observed relative to DMSO treated Th17 cells
Experimental: as §1, §2

[6] = tested on: IL-17AF; test: TH17 cytokine inhibition as measured by ELISA: IL-17AF; assay type: cell-based; settings: 120 h; human TH17 cells, 5 days differentiation, ELISA of supernatant
Experimental: as §1
(§3) Human CD4+ T cells were differentiated to TH17 cells as described in the presence or absence of various concentrations of compounds in a final concentration of 0.1% DMSO in TexMACS medium. Supernatants were collected and stored at −20° C. until they were to be assayed for IL-17A, IL-17F, IL-17AF, IL-21 and/or IL-22 levels as determined by Ready-Set-Go ELISA kits (eBioscience) as per manufacturer's instructions. Endpoint absorbance was read at 450 nm and 570 nm according to manufacturer's instructions (eBioscience) using a microplate reader (Perkin Elmer). The percentage of cytokine inhibition was calculated with reference to DMSO treated cells and the IC50s were determined by GraphPad Prism software and presented in the table below.

[7] = tested on: IL-21; test: TH17 cytokine inhibition as measured by ELISA: IL-21; assay type: cell-based; settings: 120 h; human TH17 cells, 5 days differentiation, ELISA of supernatant
Text: Peripheral blood mononuclear cells (PBMCs) were sourced from freshly prepared leukocyte enriched plasma (buffy coat) from healthy volunteers from which PBMCs were isolated by density gradient centrifugation using Ficoll-Paque™ PLUS (GE Healthcare). Naïve CD4+ T cells were isolated using the Naïve CD4+ T cell Isolation Kit II (Miltenyi Biotec) as per manufacturer's instructions. […]
as §3

Compound: CS(=O)(=O)Nc1ccc2c(c1)CCCN2Cc1ccc(C(O)(C(F)(F)F)C(F)(F)F)cc1 [Example 5, N-(1-(4-(1,1,1,3,3,3-hexafluoro-2-hydroxypropan-2-yl)benzyl)-1,2,3,4-tetrahydroquinolin-6-yl)methanesulfonamide]
- Fold change in mRNA level of compound treated TH17 cells relative to DMSO treated cells IL-22 [1]: A
- Fold change in mRNA level of compound treated TH17 cells relative to DMSO treated cells IL-17F [2]: B
- Fold change in mRNA level of compound treated TH17 cells relative to DMSO treated cells IL-21 [3]: B
- Fold change in mRNA level of compound treated TH17 cells relative to DMSO treated cells IL-17A [4]: B
- Fold change in mRNA level of compound treated TH17 cells relative to DMSO treated cells FOXP3 [5]: C

Compound: CC(=O)Nc1ccc2c(c1)CCCN2Cc1ccc(C(O)(C(F)(F)F)C(F)(F)F)cc1 [Example 2, N-(1-(4-(1,1,1,3,3,3-hexafluoro-2-hydroxypropan-2-yl)benzyl)-1,2,3,4-tetrahydroquinolin-6-yl)acetamide]
- Fold change in mRNA level of compound treated TH17 cells relative to DMSO treated cells IL-22 [1]: A
- Fold change in mRNA level of compound treated TH17 cells relative to DMSO treated cells IL-17F [2]: A
- Fold change in mRNA level of compound treated TH17 cells relative to DMSO treated cells IL-21 [3]: A
- Fold change in mRNA level of compound treated TH17 cells relative to DMSO treated cells IL-17A [4]: A
- IC50 [6]: < 10 µM
- Fold change in mRNA level of compound treated TH17 cells relative to DMSO treated cells FOXP3 [5]: A

- IC50 [7]: < 10 µM
- IC50 [6]: < 10 µM
Compound: CC(=O)Nc1ccc2c(c1)CCN2Cc1ccc(C(O)(C(F)(F)F)C(F)(F)F)cc1 [Example 4, N-(1-(4-(1,1,1,3,3,3-hexafluoro-2-hydroxypropan-2-yl)benzyl)indolin-5-yl)acetamide]
- Fold change in mRNA level of compound treated TH17 cells relative to DMSO treated cells IL-22 [1]: C
- Fold change in mRNA level of compound treated TH17 cells relative to DMSO treated cells IL-17F [2]: B
- Fold change in mRNA level of compound treated TH17 cells relative to DMSO treated cells IL-21 [3]: B
- Fold change in mRNA level of compound treated TH17 cells relative to DMSO treated cells IL-17A [4]: B
- Fold change in mRNA level of compound treated TH17 cells relative to DMSO treated cells FOXP3 [5]: C
